# Results as given in patent US20230212122A1, “MITOCHONDRIAL TARGETING COMPOUNDS FOR THE TREATMENT OF ASSOCIATED DISEASES” (The Regents of the University of Michigan, priority 2020, published 2023).
# Tested on: UM16 cell line
# Assay: GSEA of Bru-seq data (hallmark, KEGG, GO pathways, transcription factors)
# Assay type: cell-based
# Conditions: 4 hours
# Source text: Consistent with this observation, there are also massive metabolite pathways influenced including starch and sucrose metabolism, glycolysis and gluconeogenesis, purine metabolism, pyrimidine metabolism, N-glycan biosynthesis, etc.
structure (smiles),measurement,setting,value
"CCOC(=O)[C@@H]1CCCN(S(=O)(=O)c2ccc(S(=O)(=O)N(CC)CC)cc2)C1 [DX2-201, ethyl (R)-1-((4-(N,N-diethylsulfamoyl)phenyl)sulfonyl)piperidine-3-carboxylate]",ES KEGG_AMINOACYL_TRNA_BIOSYNTHESIS,5 pM,−0.4260
same,ES KEGG_DNA_REPLICATION,5 pM,−0.5795
same,ES KEGG_NUCLEOTIDE_EXCISION_REPAIR,5 pM,−0.4603
same,ES KEGG_N_GLYCAN_BIOSYNTHESIS,5 pM,−0.5360
same,ES KEGG_OXIDATIVE_PHOSPHORYLATION,5 pM,−0.4451
same,ES KEGG_PARKINSONS_DISEASE,5 pM,−0.4446
same,ES KEGG_PROTEASOME,5 pM,−0.5628
same,ES KEGG_PURINE_METABOLISM,5 pM,−0.4914
same,ES KEGG_PYRIMIDINE_METABOLISM,5 pM,−0.4987
same,ES KEGG_RNA_POLYMERASE,5 pM,−0.6348
same,ES KEGG_SPLICEOSOME,5 pM,−0.4510
same,NES KEGG_ALZHEIMERS_DISEASE,5 pM,−1.6021
same,NES KEGG_AMINOACYL_TRNA_BIOSYNTHESIS,5 pM,−1.4417
same,NES KEGG_DNA_REPLICATION,5 pM,−1.9358
same,NES KEGG_HUNTINGTONS_DISEASE,5 pM,−1.7040
same,NES KEGG_MISMATCH_REPAIR,5 pM,−1.8751
same,NES KEGG_NUCLEOTIDE_EXCISION_REPAIR,5 pM,−1.5835
same,NES KEGG_N_GLYCAN_BIOSYNTHESIS,5 pM,−1.8440
same,NES KEGG_OXIDATIVE_PHOSPHORYLATION,5 pM,−1.7650
same,NES KEGG_PARKINSONS_DISEASE,5 pM,−1.7382
same,NES KEGG_PROTEASOME,5 pM,−1.9164
same,NES KEGG_PURINE_METABOLISM,5 pM,−2.0380
same,NES KEGG_PYRIMIDINE_METABOLISM,5 pM,−1.9279
same,NES KEGG_SPLICEOSOME,5 pM,−1.8728
same,ES GO_ADP_METABOLIC_PROCESS,5 μM,0.6343
same,ES GO_ATP_GENERATION_FROM_ADP,5 μM,0.6848
same,ES GO_GLUCOSE_CATABOLIC_PROCESS,5 μM,0.7209
same,ES GO_HEXOSE_CATABOLIC_PROCESS,5 μM,0.6548
same,ES GO_MONOSACCHARIDE_CATABOLIC_PROCESS,5 μM,0.5791
same,ES GO_NADH_METABOLIC_PROCESS,5 μM,0.6704
same,ES GO_NEGATIVE_REGULATION_OF_FAT_CELL_DIFFERENTIATION,5 μM,0.6098
same,ES GO_NUCLEOTIDE_PHOSPHORYLATION,5 μM,0.5920
same,ES GO_PYRUVATE_METABOLIC_PROCESS,5 μM,0.6035
same,ES GO_RESPONSE_TO_OXYGEN_LEVELS,5 μM,0.4230
same,ES GO_RIBONUCLEOSIDE_DIPHOSPHATE_METABOLIC_PROCESS,5 μM,0.5746
same,ES HALLMARK_ALLOGRAFT_REJECTION,5 μM,0.2962
same,ES HALLMARK_ANDROGEN_RESPONSE,5 μM,0.3155
same,ES HALLMARK_ANGIOGENESIS,5 μM,−0.5078
same,ES HALLMARK_APOPTOSIS,5 μM,0.3812
same,ES HALLMARK_BILE_ACID_METABOLISM,5 μM,0.3249
same,ES HALLMARK_CHOLESTEROL_HOMEOSTASIS,5 μM,0.4969
same,ES HALLMARK_DNA_REPAIR,5 μM,−0.4085
same,ES HALLMARK_E2F_TARGETS,5 μM,−0.3804
same,ES HALLMARK_ESTROGEN_RESPONSE_LATE,5 μM,0.3437
same,ES HALLMARK_FATTY_ACID_METABOLISM,5 μM,0.2942
same,ES HALLMARK_GLYCOLYSIS,5 μM,0.4109
same,ES HALLMARK_HEDGEHOG_SIGNALING,5 μM,0.4848
same,ES HALLMARK_HEME_METABOLISM,5 μM,0.3641
same,ES HALLMARK_HYPOXIA,5 μM,0.6294
same,ES HALLMARK_IL2_STAT5_SIGNALING,5 μM,0.3402
same,ES HALLMARK_INFLAMMATORY_RESPONSE,5 μM,0.2995
same,ES HALLMARK_KRAS_SIGNALING_DN,5 μM,0.3965
same,ES HALLMARK_MITOTIC_SPINDLE,5 μM,0.3104
same,ES HALLMARK_MTORC1_SIGNALING,5 μM,0.2680
same,ES HALLMARK_MYC_TARGETS_V1,5 μM,−0.5426
same,ES HALLMARK_MYC_TARGETS_V2,5 μM,−0.6265
same,ES HALLMARK_MYOGENESIS,5 μM,0.3657
same,ES HALLMARK_OXIDATIVE_PHOSPHORYLATION,5 μM,−0.3812
same,ES HALLMARK_P53_PATHWAY,5 μM,0.3403
same,ES HALLMARK_TNFA_SIGNALING_VIA_NFKB,5 μM,0.3199
same,ES HALLMARK_UNFOLDED_PROTEIN_RESPONSE,5 μM,−0.3254
same,ES HALLMARK_UV_RESPONSE_DN,5 μM,0.3784
same,ES HALLMARK_XENOBIOTIC_METABOLISM,5 μM,0.2890
same,ES KEGG_DORSO_VENTRAL_AXIS_FORMATION,5 μM,0.6614
same,ES KEGG_GLYCOLYSIS_GLUCONEOGENESIS,5 μM,0.5362
same,ES KEGG_LEISHMANIA_INFECTION,5 μM,0.5017
same,ES KEGG_REGULATION_OF_AUTOPHAGY,5 μM,0.5972
same,ES KEGG_RENAL_CELL_CARCINOMA,5 μM,0.4210
same,ES KEGG_STARCH_AND_SUCROSE_METABOLISM,5 μM,0.7356
same,ES KEGG_TYPE_II_DIABETES_MELLITUS,5 μM,0.5316
same,NES GO_ADP_METABOLIC_PROCESS,5 μM,2.1062
same,NES GO_ATP_GENERATION_FROM_ADP,5 μM,2.0929
same,NES GO_GLUCOSE_CATABOLIC_PROCESS,5 μM,2.1191
same,NES GO_HEXOSE_CATABOLIC_PROCESS,5 μM,2.1301
same,NES GO_MONOSACCHARIDE_CATABOLIC_PROCESS,5 μM,1.9771
same,NES GO_NADH_METABOLIC_PROCESS,5 μM,2.0814
same,NES GO_NEGATIVE_REGULATION_OF_FAT_CELL_DIFFERENTIATION,5 μM,1.9052
same,NES GO_NUCLEOTIDE_PHOSPHORYLATION,5 μM,2.0727
same,NES GO_PYRUVATE_METABOLIC_PROCESS,5 μM,2.1281
same,NES GO_RESPONSE_TO_OXYGEN_LEVELS,5 μM,1.9612
same,NES GO_RIBONUCLEOSIDE_DIPHOSPHATE_METABOLIC_PROCESS,5 μM,2.0919
same,NES HALLMARK_ALLOGRAFT_REJECTION,5 μM,1.2241
same,NES HALLMARK_ANDROGEN_RESPONSE,5 μM,1.3002
same,NES HALLMARK_ANGIOGENESIS,5 μM,−1.4124
same,NES HALLMARK_APOPTOSIS,5 μM,1.6931
same,NES HALLMARK_BILE_ACID_METABOLISM,5 μM,1.2479
same,NES HALLMARK_CHOLESTEROL_HOMEOSTASIS,5 μM,1.9354
same,NES HALLMARK_DNA_REPAIR,5 μM,−1.7322
same,NES HALLMARK_E2F_TARGETS,5 μM,−1.7010
same,NES HALLMARK_ESTROGEN_RESPONSE_LATE,5 μM,1.5630
same,NES HALLMARK_FATTY_ACID_METABOLISM,5 μM,1.2729
same,NES HALLMARK_GLYCOLYSIS,5 μM,1.8782
same,NES HALLMARK_HEDGEHOG_SIGNALING,5 μM,1.3854
same,NES HALLMARK_HEME_METABOLISM,5 μM,1.6288
same,NES HALLMARK_HYPOXIA,5 μM,2.8139
same,NES HALLMARK_IL2_STAT5_SIGNALING,5 μM,1.5174
same,NES HALLMARK_INFLAMMATORY_RESPONSE,5 μM,1.2667
same,NES HALLMARK_KRAS_SIGNALING_DN,5 μM,1.4318
same,NES HALLMARK_MITOTIC_SPINDLE,5 μM,1.4709
same,NES HALLMARK_MTORC1_SIGNALING,5 μM,1.2451
same,NES HALLMARK_MYC_TARGETS_V1,5 μM,−2.4192
same,NES HALLMARK_MYC_TARGETS_V2,5 μM,−2.2565
same,NES HALLMARK_MYOGENESIS,5 μM,1.5149
same,NES HALLMARK_OXIDATIVE_PHOSPHORYLATION,5 μM,−1.6882
same,NES HALLMARK_P53_PATHWAY,5 μM,1.5682
same,NES HALLMARK_TNFA_SIGNALING_VIA_NFKB,5 μM,1.4745
same,NES HALLMARK_UNFOLDED_PROTEIN_RESPONSE,5 μM,−1.3390
same,NES HALLMARK_UV_RESPONSE_DN,5 μM,1.6434
same,NES HALLMARK_XENOBIOTIC_METABOLISM,5 μM,1.2573
same,NES KEGG_DORSO_VENTRAL_AXIS_FORMATION,5 μM,1.9145
same,NES KEGG_GLYCOLYSIS_GLUCONEOGENESIS,5 μM,1.8482
same,NES KEGG_LEISHMANIA_INFECTION,5 μM,1.6760
same,NES KEGG_REGULATION_OF_AUTOPHAGY,5 μM,1.7250
same,NES KEGG_RENAL_CELL_CARCINOMA,5 μM,1.6054
same,NES KEGG_STARCH_AND_SUCROSE_METABOLISM,5 μM,2.1177
same,NES KEGG_TYPE_II_DIABETES_MELLITUS,5 μM,1.6335
